Experimental data as given in patent US10912841B2, “Antibody-drug-conjugate and its use for the treatment of cancer” (PIERRE FABRE MEDICAMENT, priority 2014, dated 2021).
Where a SMILES comes first, the peptide text is derived from it. [ ]: non-standard residue; d: D form. The star is where a group is joined. Dolaproine = CO[C@@H]([C@@H]1CCCN1)[C@@H](C)C(=O)O; Dil = CC[C@H](C)[C@H](NC)[C@@H](CC(=O)O)OC; X2 = CC(C)[C@@H](C(=O)*)N(C)CCc1ccc(O)cc1

Experiments:
MDA-MB-231 cells = test: ATPLITE antiproliferative assay, MDA-MB-231; format: cell-based; details: Homo sapiens, 72 h drug treatment
Description: (§1) A549 (Non Small Cell Lung Cancer—ATCC® CCL-185™) and MDA-MB-231 (breast adenocarcinoma—ATCC® HTB-26m) cells were cultured in Minimum Essential Medium Eagle (MEM) with 5% fetal calf serum (FCS) and Dulbecco's modified Eagle Medium (DMEM) with 10% FCS respectively. MCF7 (breast ductal carcinoma—ATCC® HTB-22m) and SN-12C (kidney carcinoma—ATCC) cells were maintained in RPMI1640 medium (without phenol red for MCF7 cells) containing 10% FCS. All the media were supplemented with fungizone (1.25 μg/mL) and penicillin-streptomycin (100 U/100 μg/mL). Cells were cultured under standard conditions in an incubator at 37° C., 5% CO2 and 95% atmospheric humidity.
(§2) Selected drugs were investigated for their antiproliferative activity using an ATPLITE® proliferation assay (Perkin Elmer, Villebon sur Yvette, France) on a comprehensive panel of 4 cell lines. […] On day 4, cell viability was evaluated by dosing the ATP released by viable cells. The number of viable cells was analyzed in comparison with the number of solvent treated cells. The EC50 values were determined with curve fitting analysis (non linear regression model with a sigmoidal dose response, variable hill slope coefficient), performed with the algorithm provided by the […]® Software ([…]® Software Inc., CA, USA).

A549 cells = test: ATPLITE antiproliferative assay, A549; format: cell-based; details: Homo sapiens, 72 h drug treatment
Description: as §1, §2

CC[C@H](C)[C@@H]([C@@H](CC(=O)N1CCC[C@H]1[C@H](OC)[C@@H](C)C(=O)N[C@@H](Cc1ccccc1)C(=O)OC)OC)N(C)C(=O)[C@@H](NC(=O)[C@H](C(C)C)N(C)CCc1ccc(O)cc1)C(C)C [Compound 27, methyl (S)-2-((2R,3R)-3-((S)-1-((3R,4S,5S)-4-((S)-2-((S)-2-((4-hydroxyphenethyl)(methyl)amino)-3-methylbutanamido)-N,3-dimethylbutanamido)-3-methoxy-5-methylheptanoyl)pyrrolidin-2-yl)-3-methoxy-2-methylpropanamido)-3-phenylpropanoate, trifluoroacetic acid] (X2-V[Dil][Dolaproine]F-OMe)
EC50 (MDA-MB-231 cells): 0.12 nM
EC50 (A549 cells): 0.086 nM
